# From patent US20240398962A1, “DENDRIMER-GLUTAMINE ANTAGONIST CONJUGATES AND METHODS OF USE THEREOF” (The Johns Hopkins University, priority 2021, published 2024)
# Test system: not listed separately
# Assay: Stability of the prepared product on storage
# Assay type: physicochemical
# Conditions: should be stored at −80° C.
# Experimental: Piperidine (1.00 mL, 10.3 mmol, 20 equiv.) was added and the reaction mixture was stirred at rt for 2 h. The solvent was evaporated and the residue was chromatographed on silica gel (CHCl3/MeOH 1:1+2% Et3N) to afford the desired product I (165 mg, 73%) as a yellowish oil. The prepared product I is very unstable and should be stored at −80° C.
row,SMILES,Stability of prepared product
1,"CC(C)OC(=O)[C@H](CCC(=O)C=[N+]=[N-])NP(=O)(OCCCCN)Oc1ccccc1 (stereo partly drawn) [I, Isopropyl (2S)-2-(((4-aminobutoxy)(phenoxy)phosphoryl)amino)-6-diazo-5-oxohexanoate]",very unstable

# Test system: not listed separately
# Assay: Liver homogenate stability (compound disappearance by LC-MS/MS)
# Assay type: in vitro ADME
# Conditions: 20 μm, 37° C.
# Experimental: Liver or EL4 lymphoma tumor tissues were washed and diluted 10-fold in 0.1 M potassium phosphate buffer and homogenized using a probe sonicator. To evaluate the stability of the analogs 1 mL aliquots were made of each matrix and the analogs were spiked to a final assay concentration of 20 μm. Spiked samples were incubated in an orbital shaker at 37° C. for 1 h, following which reactions were quenched in triplicate with three volumes of acetonitrile containing the internal standard (IS; losartan: 0.5 μm). The samples were vortex-mixed for 30 s and centrifuged at 10 000 g for 10 min at 4° C. Fifty microliters of the supernatant was diluted with 50 μL of water and transferred to a 250 μL polypropylene vial sealed with a Teflon cap. Compound disappearance was monitored over time using liquid chromatography tandem mass spectrometry (LC-MS/MS).
row,Liver homogenate stability (% remaining at 1 h incubation) [%],SMILES
1,94,"CC(C)C[C@H](NC(=O)COCCN)C(=O)N[C@@H](CCC(=O)C=[N+]=[N-])C(=O)OC(C)(C)C [II, t-Butyl (S)-2-((S)-2-(2-(2-aminoethoxy)acetamido)-4-methylpentanamido)-6-diazo-5-oxohexanoate]"
2,79,"CC(C)C[C@H](NC(=O)CCOCCOCCN)C(=O)N[C@@H](CCC(=O)C=[N+]=[N-])C(=O)OC(C)(C)C [III, t-Butyl (2S,5S)-15-amino-2-(4-diazo-3-oxobutyl)-5-isobutyl-4,7-dioxo-10,13-dioxa-3,6-diazapentadecanoate]"
3,0,"CC(C)C[C@H](NC(=O)CCOCCOCCN)C(=O)N[C@@H](CCC(=O)C=[N+]=[N-])C(=O)OC(C)C [IV, Isopropyl (2S,5S)-15-amino-2-(4-diazo-3-oxobutyl)-5-isobutyl-4,7-dioxo-10,13-dioxa-3,6-diazapentadecanoate]"
4,17,"CC(C)C[C@H](NC(=O)COCCN)C(=O)N[C@@H](CCC(=O)C=[N+]=[N-])C(=O)OC(C)C [V, Isopropyl (S)-2-((S)-2-(2-(2-aminoethoxy)acetamido)-4-methylpentanamido)-6-diazo-5-oxohexanoate]"
5,12,"CC(C)C[C@H](NC(=O)OCC1c2ccccc2-c2ccccc21)C(=O)N[C@@H](CCC(=O)C=[N+]=[N-])C(=O)N[C@@H](Cc1ccccc1)C(=O)NCCOCCOCCOCCOCCC(=O)O [VI, (5S,8S,11S)-11-Benzyl-8-(4-diazo-3-oxobutyl)-1-(9H-fluoren-9-yl)-5-isobutyl-3,6,9,12-tetraoxo-2,16,19,22,25-pentaoxa-4,7,10,13-tetraazaoctacosane-28-oic acid]"
6,0,"CC(C)C[C@H](NC(=O)OCC1c2ccccc2-c2ccccc21)C(=O)N[C@@H](CCC(=O)C=[N+]=[N-])C(=O)N[C@@H](Cc1ccccc1)C(=O)NCCOCCOCCOCCC(=O)O [VII, (5S,8S,11S)-11-benzyl-8-(4-diazo-3-oxobutyl)-1-(9H-fluoren-9-yl)-5-isobutyl-3,6,9,12-tetraoxo-2,16,19,22-tetraoxa-4,7,10,13-tetraazapentacosan-25-oic acid]"

row,SMILES,Liver homogenate stability (% remaining at 1 h incubation) [%]
1,"CC(C)OC(=O)[C@H](CCC(=O)C=[N+]=[N-])NP(=O)(OCCCCN)Oc1ccccc1 (stereo partly drawn) [I, Isopropyl (2S)-2-(((4-aminobutoxy)(phenoxy)phosphoryl)amino)-6-diazo-5-oxohexanoate]",32

# Test system: glutaminase
# Assay: not given
# Conditions: cited from earlier work
row,SMILES,Inhibition of glutamine-utilizing enzymes including glutaminase
1,"[N-]=[N+]=CC(=O)CC[C@H](N)C(=O)O [DON, 6-diazo-5-oxo-L-norleucine]",low micromolar levels
